Assay [1] concerns the target T1, Suppressor of tumorigenicity 14 protein (Homo sapiens, UniProt Q9Y5Y6).
T1 sequence (Q9Y5Y6 whole entry): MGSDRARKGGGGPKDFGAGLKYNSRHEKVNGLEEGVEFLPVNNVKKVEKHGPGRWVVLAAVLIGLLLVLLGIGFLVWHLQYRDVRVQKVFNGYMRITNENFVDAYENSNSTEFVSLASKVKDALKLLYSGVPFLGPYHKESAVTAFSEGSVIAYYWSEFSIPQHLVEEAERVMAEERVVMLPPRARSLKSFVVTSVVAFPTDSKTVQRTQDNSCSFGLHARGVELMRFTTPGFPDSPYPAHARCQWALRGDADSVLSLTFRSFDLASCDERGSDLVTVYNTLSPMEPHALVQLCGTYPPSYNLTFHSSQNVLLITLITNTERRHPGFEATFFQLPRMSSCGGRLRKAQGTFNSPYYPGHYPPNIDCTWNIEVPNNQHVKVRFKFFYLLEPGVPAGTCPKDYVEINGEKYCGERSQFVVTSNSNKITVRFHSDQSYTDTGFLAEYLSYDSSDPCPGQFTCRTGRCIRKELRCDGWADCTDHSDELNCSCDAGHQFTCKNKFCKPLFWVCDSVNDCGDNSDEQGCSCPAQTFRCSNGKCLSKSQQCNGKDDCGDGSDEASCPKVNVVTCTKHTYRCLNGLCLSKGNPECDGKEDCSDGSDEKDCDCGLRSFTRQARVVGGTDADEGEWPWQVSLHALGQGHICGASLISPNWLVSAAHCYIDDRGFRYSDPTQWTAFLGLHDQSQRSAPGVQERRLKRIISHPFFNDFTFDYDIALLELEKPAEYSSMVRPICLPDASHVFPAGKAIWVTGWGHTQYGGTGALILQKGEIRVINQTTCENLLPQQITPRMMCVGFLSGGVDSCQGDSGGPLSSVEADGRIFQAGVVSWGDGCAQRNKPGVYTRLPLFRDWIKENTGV
The assay is described as follows: Inhibition of matripase (unknown origin) using Boc-QAR-AMC as substrate incubated for 30 mins prior to substrate addition by fluorescence assay.

For another assay, the target named is Serine protease hepsin (Homo sapiens, UniProt P05981). The assay can be described thus: Inhibition of hepsin (unknown origin) using Boc-QAR-AMC as substrate after 30 mins prior to substrate addition by fluorescence assay.
The target of assay [2] is T2, Hepatocyte growth factor activator serine protease (Homo sapiens, UniProt Q04756).
T2 sequence (Q04756 whole entry): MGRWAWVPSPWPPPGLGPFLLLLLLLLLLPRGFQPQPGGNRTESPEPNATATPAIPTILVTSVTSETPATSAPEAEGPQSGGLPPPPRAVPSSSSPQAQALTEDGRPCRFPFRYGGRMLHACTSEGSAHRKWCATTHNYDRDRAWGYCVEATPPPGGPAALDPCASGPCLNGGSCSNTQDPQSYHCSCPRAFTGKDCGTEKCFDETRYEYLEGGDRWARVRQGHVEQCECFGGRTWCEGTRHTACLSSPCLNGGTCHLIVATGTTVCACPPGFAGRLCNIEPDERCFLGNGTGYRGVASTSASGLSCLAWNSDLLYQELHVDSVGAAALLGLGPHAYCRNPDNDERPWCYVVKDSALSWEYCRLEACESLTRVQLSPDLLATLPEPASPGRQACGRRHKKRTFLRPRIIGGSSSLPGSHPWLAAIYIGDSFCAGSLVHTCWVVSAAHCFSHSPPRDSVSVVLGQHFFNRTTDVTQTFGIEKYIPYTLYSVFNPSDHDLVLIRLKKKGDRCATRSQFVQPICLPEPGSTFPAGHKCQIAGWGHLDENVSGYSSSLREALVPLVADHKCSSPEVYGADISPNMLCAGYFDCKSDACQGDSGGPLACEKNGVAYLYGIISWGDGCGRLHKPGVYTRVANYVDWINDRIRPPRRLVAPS
The assay is described as follows: Inhibition of recombinant N-terminal His-tagged HGFA (unknown origin) expressed in baculovirus-infected Sf9 cells incubated for 30 mins prior to cromogenic substrate addition by spectrophotometry.

Assay [3] addresses T2, Hepatocyte growth factor activator serine protease. The assay can be described thus: Inhibition of recombinant N-terminal His-tagged HGFA (unknown origin) expressed in baculovirus-infected Sf9 cells using Boc-QLR-AMC as substrate incubated for 30 mins prior to substrate addition by fluorescence assay.
The target of assay [4] is T3, Hepatocyte growth factor activator serine protease (Homo sapiens) (UniProt Q04756).
T3 sequence (whole entry): T2 sequence (Q04756 whole entry)
The assay can be described thus: Inhibition of recombinant N-terminal His-tagged HGFA (unknown origin) expressed in baculovirus-infected Sf9 cells using Boc-QLR-AMC as substrate up to 20 uM incubated for 30 mins prior to substrate addition by fluorescence assay.

For assay [5], the target named is T2, Hepatocyte growth factor activator serine protease. The assay can be described thus: Inhibition of HGFA (unknown origin) after 40 mins by Eadie-Hofstee plot analysis.

Calls of active or inactive are those of the source. No cut-off for these calls is given here.

Chain of Serine protease hepsin (P05981 1-162 limits assumed): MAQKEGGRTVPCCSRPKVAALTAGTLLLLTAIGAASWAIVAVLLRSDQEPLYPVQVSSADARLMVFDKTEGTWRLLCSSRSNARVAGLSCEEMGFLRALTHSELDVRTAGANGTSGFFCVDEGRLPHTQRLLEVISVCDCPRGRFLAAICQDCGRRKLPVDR
Chain of Serine protease hepsin (P05981 163-417 limits assumed): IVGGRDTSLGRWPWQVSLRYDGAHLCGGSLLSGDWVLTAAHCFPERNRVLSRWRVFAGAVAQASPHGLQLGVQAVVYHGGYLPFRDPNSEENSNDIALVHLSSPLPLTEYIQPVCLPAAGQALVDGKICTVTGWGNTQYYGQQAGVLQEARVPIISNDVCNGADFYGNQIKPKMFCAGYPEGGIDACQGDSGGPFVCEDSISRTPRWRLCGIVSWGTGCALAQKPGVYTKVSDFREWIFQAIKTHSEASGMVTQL

Regarding `Cc1ccc(S(=O)(=O)N[C@@H](Cc2cccc(C(=N)N)c2)C(=O)N2CCC(c3ccccc3)CC2)cc1`, the values for the Ki (in assay [1]; at Serine protease hepsin) were 0.48 µM and 4.7 µM, respectively.

As for `COC(=O)c1ccc2cc(NS(=O)(=O)c3ccc(NC(=N)N)cc3)ccc2c1`, the IC50 (commonly the concentration that inhibits the measured activity by half) in assay [2] is above 50 µM.

As for `Cc1ccc(S(=O)(=O)N[C@@H](Cc2cccc(C(=N)N)c2)C(=O)N2CCC[C@H](NC(=O)OCc3ccccc3)C2)cc1`, the Ki (as a rule, a dissociation constant, usually derived from enzyme kinetics or from competition with a known ligand) in assay [1] came out at 1.2 µM.

With `N=C(N)Nc1ccc(C(=O)Oc2ccc([N+](=O)[O-])cc2Cl)cc1`, the IC50 in assay [2] was determined as 0.3 µM.

`CCc1cc(C(Nc2ccc(C(=N)N)cc2)C(=O)NS(=O)(=O)c2cn(C)cn2)cc2c(C)coc12` (racemic): the Ki in assay [3] turned out to be 7.1 µM; in assay [1], 7.18 µM; at Serine protease hepsin it was 0.553 µM.

As for `CC(C)c1cc(C(C)C)c(S(=O)(=O)N[C@@H](Cc2cccc(C(=N)N)c2)C(=O)N2CCN(C(=O)C3CCN(C(=N)N)CC3)CC2)c(C(C)C)c1`, the Ki amounted to 17 µM in assay [3], 0.0043 µM in assay [1] and 1.58 µM at Serine protease hepsin.

In the case of `N=C(N)Nc1ccc(C(=O)Nc2ccccc2)cc1`, the IC50 in assay [2] was above 50 µM.

Take `CN(C)C(=O)COC(=O)Cc1ccc(OC(=O)c2ccc(NC(=N)N)cc2)cc1` [CAMOSTAT]: the IC50 in assay [2] was found to be 32 µM.

For `Cc1ccc(S(=O)(=O)N[C@@H](CCCCN)C(=O)CCl)cc1`, the inhibition result in assay [4] was “inactive”.

On to `N=C(N)Nc1ccc(C(=O)Oc2ccc([N+](=O)[O-])cc2)cc1`, for which the IC50 in assay [2] is 0.82 µM.

For the compound `COC(=O)c1ccc(OC(=O)c2ccc(NC(=N)N)cc2)cc1`, the IC50 in assay [2] was 1.1 µM.

For `[H]/N=C(/N)c1ccc(NCc2nc3cc(C(=O)N(CCC(=O)O)c4ccccn4)ccc3n2C)cc1` [DABIGATRAN], at Serine protease hepsin, the Ki was determined as 0.835 µM.

For `N=C(N)c1cccc(C[C@H](NS(=O)(=O)c2ccc3ccccc3c2)C(=O)N2CCC[C@@H](NC(=O)OCc3ccccc3)C2)c1`, the Ki came to 6.7 µM in assay [1] and 2.6 µM at Serine protease hepsin.

`N=C(N)Nc1ccc(C(=O)Oc2ccc(C(N)=O)cc2)cc1`: in assay [2], the IC50 was found to be 6.8 µM.

Compound `O=C(NC[C@H]1CN(c2ccc(N3CCOCC3=O)cc2)C(=O)O1)c1ccc(Cl)s1` [RIVAROXABAN] had a Ki in assay [1] of 3.35 µM.

For the compound `N=C(N)Nc1ccc(NC(=O)c2ccccc2)cc1`, the IC50 in assay [2] is above 50 µM.

Consider `CC(C)c1cc(C(C)C)c(S(=O)(=O)N[C@@H](Cc2cccc(C(=N)N)c2)C(=O)N2CCN(C(=O)C3CCNCC3)CC2)c(C(C)C)c1`, for which the Ki in assay [3] came to 5.5 µM; on Serine protease hepsin, 7.4 µM.

For `N=C(N)c1cccc(C[C@H](NS(=O)(=O)c2ccc3ccccc3c2)C(=O)N2CCN(C(=O)NCc3ccccc3)CC2)c1`, the affinity in assay [1] corresponds to a Ki of 2.6 µM.

Regarding `N=C(N)c1cccc(C[C@H](NS(=O)(=O)c2ccc3ccccc3c2)C(=O)N2CCN(C(=O)c3csc4ccccc34)CC2)c1`, the Ki in assay [1] worked out at 1.5 µM; at Serine protease hepsin, 3.5 µM.

For the compound `N=C(N)c1ccc2cc(OC(=O)c3ccc(N=C(N)N)cc3)ccc2c1` [NAFAMOSTAT], the IC50 in assay [2] was 0.15 µM.

In turn, `CCCCCCNC(=O)N1CCN(C(=O)[C@H](Cc2cccc(C(=N)N)c2)NS(=O)(=O)c2ccc3ccccc3c2)CC1` yielded a Ki at Serine protease hepsin of 1.2 µM.

`N=C(N)c1cccc(C[C@H](NS(=O)(=O)c2ccc3ccccc3c2)C(=O)N2CCN(C(=O)NCc3ccc(Br)cc3)CC2)c1` showed a Ki in assay [1] of 4.6 µM.

On to `COC(=O)c1ccc2cc(OC(=O)c3ccc(NC(=N)N)cc3)ccc2c1`, for which the IC50 in assay [2] was found to be 0.6 µM.

For `CCc1cc([C@@H](Nc2ccc(C(=N)N)cc2)C(=O)NS(=O)(=O)c2cn(C)cn2)cc2c(C)coc12`, the Ki in assay [5] worked out at 0.59 µM.

In the case of `Cc1ccc(S(=O)(=O)N[C@@H](Cc2cccc(C(=N)N)c2)C(=O)N2CCN(C(=O)NCCc3ccccc3)CC2)cc1`, the Ki was above 50 µM in assay [3], 2.5 µM in assay [1] and 0.67 µM on Serine protease hepsin.

Turning to `N=C(N)Nc1ccc(C(=O)Oc2cccc([N+](=O)[O-])c2)cc1`, the IC50 in assay [2] came to 3 µM.

In the case of `Cc1ccc(S(=O)(=O)Nc2ccc(NC(=N)N)cc2)cc1`, the IC50 in assay [2] was above 50 µM.

The values are drawn from ChEMBL document CHEMBL3400148, “Structure-based discovery of small molecule hepsin and HGFA protease inhibitors: Evaluation of potency and selectivity derived from distinct binding pockets” (Bioorg Med Chem, 2015).
